The source of these data is US20200289474A1, “METHODS OF TREATING PAIN WITH A THIAZOLINE ANTI-HYPERALGESIC” (priority 2019, published 2020).

This series has as its target T1, OATP1B1 (Homo sapiens, UniProt Q9Y6L6).
T1 construct: expressed in transfected cells; host or cells: HEK293 cells
T1 sequence (Q9Y6L6 1-691): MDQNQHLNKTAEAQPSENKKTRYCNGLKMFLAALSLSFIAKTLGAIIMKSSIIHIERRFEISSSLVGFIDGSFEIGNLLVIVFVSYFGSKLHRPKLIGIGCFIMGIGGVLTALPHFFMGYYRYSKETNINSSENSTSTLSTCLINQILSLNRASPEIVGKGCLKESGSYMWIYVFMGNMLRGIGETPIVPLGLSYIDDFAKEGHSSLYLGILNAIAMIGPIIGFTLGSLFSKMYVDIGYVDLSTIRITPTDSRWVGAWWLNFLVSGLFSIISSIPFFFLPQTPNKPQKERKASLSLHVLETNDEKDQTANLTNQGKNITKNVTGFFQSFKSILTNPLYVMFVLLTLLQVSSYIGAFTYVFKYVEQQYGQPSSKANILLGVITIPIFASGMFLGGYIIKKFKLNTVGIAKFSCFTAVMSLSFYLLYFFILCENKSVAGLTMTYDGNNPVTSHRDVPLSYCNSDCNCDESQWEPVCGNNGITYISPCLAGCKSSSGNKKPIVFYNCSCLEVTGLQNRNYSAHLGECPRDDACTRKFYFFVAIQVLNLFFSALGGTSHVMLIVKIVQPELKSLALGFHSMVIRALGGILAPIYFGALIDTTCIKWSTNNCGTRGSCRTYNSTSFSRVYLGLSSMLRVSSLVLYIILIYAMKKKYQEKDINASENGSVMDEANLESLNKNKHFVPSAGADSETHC
In words: transporter inhibition, HEK293 cells, probe accumulation. It is filed as in vitro ADME.

Turning to `CC1(C)SC(Nc2ccccc2O)=N[C@@H]1C(=O)O.Cl` [Compound 1, (R)-2-(2-hydroxyphenylamino)-5,5-dimethyl-4,5-dihydrothiazole-4-carboxylic acid mono-hydrochloride], the “inhibition” value was “does not inhibit”.
